The text below walks through data of patent US9347077B2, “Over-expression of a putative oxidoreductase (UcpA) for increasing furfural or 5-hydroxymethylfurfural tolerance” (UNIVERSITY OF FLORIDA RESEARCH FOUNDATION, INCORPORATED, priority 2011, dated 2016).

Holding throughout (assay): pH-controlled batch fermentation (10% xylose)
Holding throughout (format): cell-based, Escherichia coli

One assay deals with LY180/pTrc99A. As to the method:
(§1) Seed pre-cultures of strains containing pTrc99A or pLOI4856 were grown from plates using sealed culture tubes containing AM1 medium (20 g liter^−1 xylose, 12.5 mg liter^−1 ampicillin). After incubation for 16 h, pre-inocula were diluted into 500-ml fermentation vessels containing 300 ml AM1 media (100 g liter^−1 xylose, 1 mM betaine, 0.1 mM IPTG, 12.5 μg ml^−1 ampicillin) to provide a starting density of 13.2 mg dcw. After 24 h growth, these seed cultures were used to provide a starting inoculum for batch fermentations (AM1 medium, 100 g liter^−1 xylose, 12.5 μg ml^−1 ampicillin, 0.1 mM IPTG, 13.2 mg dcw initial density, and furfural). Fermentations were maintained at pH 6.5 […] by the automatic addition of KOH as previously described (Miller et al., 2009b). Ethanol was measured using an Agilent 6890N gas chromatograph (Palo Alto, Calif.) equipped with a flame ionization detector and a 15-meter HP-Plot Q Megabore column. Furfural concentration was monitored using a Beckman DU spectrophotometer (Martinez et al., 2000b; Miller et al., 2009b). Organic acids and xylose were measured by high-performance liquid chromatography (Miller et al., 2009b).
(§2) The effects of UcpA on growth, ethanol production, and furfural metabolism were investigated in more detail during pH-controlled batch fermentation in mineral salt medium (AM1 medium containing 100 g xylose liter^−1, 0.1 mM IPTG and 12.5 μg ml^−1 ampicillin for all cultures harboring plasmids; furfural as indicated; inoculum of 22 mg dcw liter^−1) as previously described (Wang et al., 2011b). Ethanol (retention time 1.1 min) and furfuryl alcohol (retention time 6.2 min) were measured using an Agilent 6890N gas chromatograph (Santa Clara, Calif.) (Miller et al., 2009b). Furoic acid (retention time of 51.2 min) and sugars were measured by high-performance liquid chromatography (Geddes et al., 2010a). Furfural was measured using a Beckman-Coulter DU 800 spectrophotometer (Martinez et al., 2000a).

The test system of another assay is LY180/pLOI4856. As to the method: as §1, §2
For the next assay, the system named is E. coli W.
Where [1] appears, read: 15 mM furfural, batch fermentation of xylose to ethanol.

In the case of `O=Cc1ccco1` [furfural], in the assay with LY180/pTrc99A (10 mM furfural), the “Cell Yield” value turned out to be 0.06 ± 0.01 g/L, the “Furfural-dependent slow growth Duration” value is over 72 h, the “Furfural-dependent slow growth μ” value is under 0.04 h⁻¹ and the “μ Max” value was under 0.04 h⁻¹. Moreover, the “Growth in the presence of furfural” value in the assay with LY180/pTrc99A (setting [1]) was “unable to grow”. In the assay with LY180/pLOI4856 (10 mM furfural), the “Cell Yield” value turned out to be 3.6 ± 0.1 g/L, the “Furfural-dependent slow growth Duration” value was found to be 22 ± 2 h, the “Furfural-dependent slow growth μ” value worked out at 0.09 ± 0.01 h⁻¹ and the “μ Max” value was 0.14 ± 0.01 h⁻¹. In addition, the Final ethanol yield entry in the assay with LY180/pLOI4856 (15 mM furfural, 100 g liter^−1 xylose) is listed as “approximately 90 % of the theoretical maximum”. The “Growth lag in the presence of furfural” value with LY180/pLOI4856 (setting [1]) came to 24 h. Moreover, in the assay with E. coli W (8 mM furfural), the “Cell Yield” value is 1.9 ± 0.1 g/L, the “Furfural-dependent slow growth Duration” value amounted to 13 ± 1 h, the “Furfural-dependent slow growth μ” value was found to be 0.18 ± 0.01 h⁻¹ and the “μ Max” value was determined as 0.19 ± 0.01 h⁻¹. For the same compound, in the assay with E. coli W (10 mM furfural), the “Cell Yield” value was 2.0 ± 0.1 g/L, the “Furfural-dependent slow growth Duration” value was determined as 21 ± 1 h, the “Furfural-dependent slow growth μ” value is 0.06 ± 0.02 h⁻¹ and the “μ Max” value came out at 0.20 ± 0.02 h⁻¹.
